The values below come from US20250235484A1, “METHODS FOR MAKING EXTRACELLULAR VESICLES, AND COMPOSITIONS AND METHODS OF USE THEREOF” (EVIA LIFE SCIENCES INC., priority 2021, published 2025).

Experiment [1] concerns Human primary keratinocytes. The experiment can be described thus: Long-term culture of keratinocytes: proliferation, morphology, cell condition. It is filed as cell-based. The protocol: Human primary keratinocytes were cultured in EpiLife™ medium with or without Y or Y+A supplementation according to the schedule below, and analyzed for extracellular vesicle secretion. 10 μM Y-27632 (Wako) and 0.5 μM A-83-01 (Wako) was used. Collection media was serum-free EpiLife™ medium without inhibitors. Thus, depending on the experiment, or stage of the experiment, human epidermal keratinocytes were cultured in serum free media such as EpiLife™ Medium, without or without small molecule inhibitor(s), namely, 10 μM Y-27632 (Wako) alone, or 10 μM Y-27632 plus 0.5 μM A-83-01 (Wako). [table] Long-term culture of keratinocytes was carried out by adding low molecular weight compounds Y and Y+A.

The subject of experiment [2] is Human primary keratinocytes. The experiment is described as follows: Extracellular vesicle secretion by cultured keratinocytes, Nanosight analysis of culture supernatant. It is filed as cell-based. The following applies: compared with normal KC-EVs / keratinocytes without inhibitors. The protocol: Human primary keratinocytes were cultured in EpiLife™ medium with or without Y or Y+A supplementation according to the schedule below, and analyzed for extracellular vesicle secretion. 10 μM Y-27632 (Wako) and 0.5 μM A-83-01 (Wako) was used. Collection media was serum-free EpiLife™ medium without inhibitors. Thus, depending on the experiment, or stage of the experiment, human epidermal keratinocytes were cultured in serum free media such as EpiLife™ Medium, without or without small molecule inhibitor(s), namely, 10 μM Y-27632 (Wako) alone, or 10 μM Y-27632 plus 0.5 μM A-83-01 (Wako).

Entries after “also recorded” stand apart in the source; their conditions may differ.

As for `CC(N)[C@H]1CC[C@H](C(=O)Nc2ccncc2)CC1` (mixture of isomers) [Y, (+/−)-trans-N-(4-Pyridyl)-4-(1-aminoethyl)-cyclohexanecarboxamide], the cell proliferation entry in experiment [1] (compared with culturing normal cells without Y, 10 μM Y-27632) is listed as “increased; also recorded: enhanced”. In experiment [1] (long-term culture, micrographs), the “cell growth, morphology and cell condition” value is “good cell growth, and good morphology; also recorded: cell morphology was the best”. Moreover, the “amount of EVs secreted” value in experiment [2] was “increased; also recorded: larger number”.
